Assays:
Type in all cases: in vivo, human
[1] = Phase 2 dose range finding study in obese patients (CLIK066B2201); settings: 30 mg QD; expected
Description: A dose of 30 mg QD is expected to achieve approximately 70% of maximum observed efficacy (using weight loss as a downstream marker for efficacy; CLIK066B2201). Licogliflozin is currently being tested as 30 mg and 150 mg QD monotherapy in NASH (CLIK066X2204). […] To minimize the risk of GI adverse effects of the SGLT1 inhibition in the gut such as diarrhea, licogliflozin will administered in the evening.

[2] = Placebo-controlled, randomized Phase 2a study in patients with NASH (CLIK066X2204, NCT03205150), interim analysis; settings: for patients reporting diarrhea (most common adverse event): 12 weeks, placebo 38.9%
Description: Method: Patients with histologically confirmed NASH (F1-F3) or phenotypic NASH (BMI≥27 kg/m^2 in non-Asians or ≥23 kg/m^2 in Asians, ALT≥50 (males) or ≥35 (females) and type 2 diabetes (T2DM)) received daily oral licogliflozin at 150 mg, 30 mg or placebo in a 2:2:1 ratio for 12 weeks (NCT03205150). The primary endpoint is the effect on ALT level after 12 weeks of treatment. Secondary endpoints include improvement in body weight, liver fat content and AST, amongst others. The study size is 110 of which 77 have completed (placebo (n=18); licogliflozin 30 mg (n=25) and licogliflozin 150 mg (n=34)) and are included in the interim analysis.

[3] = Randomized, double-blind, placebo controlled dose finding study in Japanese patients with obesity disease
Description: This study was a randomized, double-blind, placebo controlled, dose finding study to evaluate the effect of licogliflozin (2.5, 10, 25 and 50 mg qd) in 126 Japanese patients with obesity disease. The primary objective was to examine the dose-response relationship of licogliflozin treatment in body weight reduction relative to placebo at 12 weeks. The secondary objectives included assessment of responder rates, change in parameters related to complications, visceral and subcutaneous fat area, and safety through 12 weeks of treatment.

Which results are given for `CCc1ccc([C@@H]2O[C@H](CO)[C@@H](O)[C@H](O)[C@H]2O)cc1Cc1ccc2c(c1)OCCO2` [licogliflozin, (2S,3R,4R,5S,6R)-2-(3-((2,3-dihydrobenzo[b][1,4]dioxin-6-yl)methyl)-4-ethylphenyl)-6-(hydroxymethyl)tetrahydro-2H-pyran-3,4,5-triol]?
share of maximum observed efficacy (weight loss as downstream marker) [1]: approximately 70%; patients reporting diarrhea (most common adverse event) ([2]; 30 mg): 40%; reduction of ALT and liver fat (interim analysis) ([2]; 150 mg QD treatment group): promising reduction; incidence of gastrointestinal events (mainly diarrhea) ([2]; 150 mg QD treatment group, interim analysis): significant incidence; patients reporting diarrhea (most common adverse event) ([2]; 150 mg): 76.5%; safety and tolerability ([3]; 2.5, 10, 25 and 50 mg qd over 12 weeks): safe and well tolerated; ketoacidosis ([3]; 2.5, 10, 25 and 50 mg qd, 12 weeks): no ketoacidosis; patients who achieved reduction of ≥3% in body weight ([3]; 10, 25 and 50 mg qd dose groups, placebo 7.1%, p≤0.002 for all): ≥ 50%
